According to patent US10251394B2, “Molecules having pesticidal utility, and intermediates, compositions, and processes, related thereto” (Dow AgroSciences LLC, priority 2016, dated 2019):

Legend:
[1] = system: Beet Armyworm (Spodoptera exigua); assay: Bioassay on Beet Armyworm (BAW), 128-well diet tray assay; assay type: in vivo; conditions: for pest or weed control at 50 µg/cm2: Beet Armyworm, Table ABC, read-out: BAW rating; for mortality at 0.05 µg/cm2 / mortality at 0.5 µg/cm2 / mortality at 5 µg/cm2: 168 h, second instar larvae, five to seven days, read-out: BAW Percent control (or mortality); for mortality at 0.05 µg/cm2: 0.05 μg/cm^2 on artificial diet; for mortality at 0.5 µg/cm2: 0.5 μg/cm^2 on artificial diet; for mortality at 5 µg/cm2: 5 μg/cm^2 on artificial diet
Method in brief: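 Second-instar larvae (one to five per well) placed on artificial diet surface-treated with 50 μg/cm^2 test molecule in 90:10 acetone-water, dried, eight wells per molecule. Held at 25° C, 14:10 light-dark, five to seven days; percent mortality recorded per well and averaged across the eight wells.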

[2] = system: Cabbage Looper (Trichoplusia ni); assay: Bioassay on Cabbage Looper (CL), 128-well diet tray assay; assay type: in vivo; conditions: for pest or weed control at 50 µg/cm2: Cabbage Looper, Table ABC, read-out: CL rating; for mortality at 0.05 µg/cm2 / mortality at 0.5 µg/cm2 / mortality at 5 µg/cm2: 168 h, second instar larvae, five to seven days, read-out: CL Percent control (or mortality); for mortality at 0.05 µg/cm2: 0.05 μg/cm^2 on artificial diet; for mortality at 0.5 µg/cm2: 0.5 μg/cm^2 on artificial diet; for mortality at 5 µg/cm2: 5 μg/cm^2 on artificial diet
Method in brief: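 Second-instar larvae, one to five per well, placed on artificial diet surface-treated with 50 μg/cm^2 compound in acetone-water, eight wells per compound. Held 5-7 days at 25° C, 14:10 light-dark; percent mortality per well averaged across wells.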

| Compound | pest or weed control at 50 µg/cm2 [1] [%] | pest or weed control at 50 µg/cm2 [2] [%] | other results |
| --- | --- | --- | --- |
| C[C@@H](NC(=O)c1ccc(/C(F)=C/C(c2cc(F)c(Cl)c(C(F)(F)F)c2)C(F)(F)F)cc1C(F)(F)F)C(=O)NCC(F)(F)F (stereo partly drawn) [F202, 4-((Z)-3-(4-Chloro-3-fluoro-5-(trifluoromethyl)phenyl)-1,4,4,4-tetrafluorobut-1-en-1-yl)-N—((R)-1-oxo-1-((2,2,2-trifluoroethyl)amino)propan-2-yl)-2-(trifluoromethyl)benzamide] | 50 to 100 | 50 to 100 | – |
| O=C(CNC(=O)c1ccc(/C(F)=C/C(c2cc(F)c(Cl)c(C(F)(F)F)c2)C(F)(F)F)cc1C(F)(F)F)NCC(F)(F)F (centres unmarked) [F203, (Z)-4-(3-(4-Chloro-3-fluoro-5-(trifluoromethyl)phenyl)-1,4,4,4-tetrafluoro-but-1-en-1-yl)-N-(2-oxo-2-((2,2,2-trifluoroethyl)amino)ethyl)-2-(trifluoromethyl)benzamide] | 50 to 100 | 50 to 100 | – |
| C=Cc1cc(/C(F)=C/C(c2cc(Cl)c(Cl)c(Cl)c2)C(F)(F)F)ccc1C(=O)N[C@@H]1CON(CC(F)(F)F)C1=O (stereo partly drawn) [F204, N—((R)-3-Oxo-2-(2,2,2-trifluoroethyl)isoxazolidin-4-yl)-4-((Z)-1,4,4,4-tetrafluoro-3-(3,4,5-trichlorophenyl)but-1-en-1-yl)-2-vinylbenzamide] | 50 to 100 | 50 to 100 | – |
| O=C(CNC(=O)c1ccc(/C(F)=C/C(c2ccc(C(F)(F)F)c(Cl)c2)C(F)(F)F)cc1C(F)(F)F)NCC(F)(F)F (centres unmarked) [F206, (Z)-4-(3-(3-Chloro-4-(trifluoromethyl)phenyl)-1,4,4,4-tetrafluorobut-1-en-1-yl)-N-(2-oxo-2-((2,2,2-trifluoroethyl)amino)ethyl)-2-(trifluoromethyl)benzamide] | 50 to 100 | 50 to 100 | – |
| C[C@@H](NC(=O)c1ccc(/C(F)=C/C(c2cc(Cl)cc(OCC(F)(F)F)c2)C(F)(F)F)cc1C(F)(F)F)C(=O)NCC(F)(F)F (stereo partly drawn) [F207, 4-((Z)-3-(3-chloro-5-(2,2,2-trifluoroethoxy)phenyl)-1,4,4,4-tetrafluorobut-1-en-1-yl)-N—((R)-1-oxo-1-((2,2,2-trifluoroethyl)amino)propan-2-yl)-2-(trifluoromethyl)benzamide] | 50 to 100 | 50 to 100 | – |
| O=C(CNC(=O)c1ccc(/C(F)=C/C(c2ccc(C(F)(F)F)c(F)c2)C(F)(F)F)cc1C(F)(F)F)NCC(F)(F)F (centres unmarked) [F211] | 50 to 100 | 50 to 100 | – |
| C[C@@H](NC(=O)c1ccc(/C(F)=C/C(c2cc(Cl)cc(C#CC(C)(C)C)c2)C(F)(F)F)cc1C(F)(F)F)C(=O)NCC(F)(F)F (stereo partly drawn) [F212, 4-((Z)-3-(3-Chloro-5-(3,3-dimethylbut-1-yn-1-yl)phenyl)-1,4,4,4-tetrafluorobut-1-en-1-yl)-N—((R)-1-oxo-1-((2,2,2-trifluoroethyl)amino)propan-2-yl)-2-(trifluoromethyl)benzamide] | 50 to 100 | 50 to 100 | – |
| C[C@@H](NC(=O)c1ccc(/C(F)=C/C(c2cc(Cl)cc(C(F)F)c2)C(F)(F)F)cc1C(F)(F)F)C(=O)NCC(F)(F)F (stereo partly drawn) [F213, 4-((Z)-3-(3-Chloro-5-(difluoromethyl)phenyl)-1,4,4,4-tetrafluorobut-1-en-1-yl)-N—((R)-1-oxo-1-((2,2,2-trifluoroethyl)amino)propan-2-yl)-2-(trifluoromethyl)benzamide] | 50 to 100 | 50 to 100 | – |
| C[C@@H](NC(=O)c1ccc(/C(F)=C/C(c2cc(F)c(F)c(Br)c2)C(F)(F)F)cc1C(F)(F)F)C(=O)NCC(F)(F)F (stereo partly drawn) [F214, 4-((Z)-3-(3-Bromo-4,5-difluorophenyl)-1,4,4,4-tetrafluorobut-1-en-1-yl)-N—((R)-1-oxo-1-((2,2,2-trifluoroethyl)amino)propan-2-yl)-2-(trifluoromethyl)benzamide] | 50 to 100 | 50 to 100 | – |
| O=C(CNC(=O)c1ccc(/C(F)=C/C(c2ccc(F)c(F)c2)C(F)(F)F)cc1C(F)(F)F)NCC(F)(F)F (centres unmarked) [F215, (Z)-4-(3-(3,4-difluorophenyl)-1,4,4,4-tetrafluorobut-1-en-1-yl)-N-(2-oxo-2-((2,2,2-trifluoroethyl)amino)ethyl)-2-(trifluoromethyl)benzamide] | 50 to 100 | 50 to 100 | – |
| C[C@@H](NC(=O)c1ccc(/C(F)=C/C(c2cc(F)c(F)c(C#CC(C)(C)C)c2)C(F)(F)F)cc1C(F)(F)F)C(=O)NCC(F)(F)F (stereo partly drawn) [F216, 4-((Z)-3-(3-(3,3-Dimethylbut-1-yn-1-yl)-4,5-difluorophenyl)-1,4,4,4-tetrafluorobut-1-en-1-yl)-N—((R)-1-oxo-1-((2,2,2-trifluoroethyl)amino)propan-2-yl)-2-(trifluoromethyl)benzamide] | 50 to 100 | 50 to 100 | – |
| O=C(CNC(=O)c1ccc(/C(F)=C/C(c2cc(F)c(F)c(Br)c2)C(F)(F)F)cc1C(F)(F)F)NCC(F)(F)F (centres unmarked) [F217, (Z)-4-(3-(3-Bromo-4,5-difluorophenyl)-1,4,4,4-tetrafluorobut-1-en-1-yl)-N-(2-oxo-2-((2,2,2-trifluoroethyl)amino)ethyl)-2-(trifluoromethyl)benzamide] | 50 to 100 | 50 to 100 | – |
| O=C(CNC(=O)c1ccc(/C(F)=C/C(c2cc(Cl)c(Cl)c(Cl)c2)C(F)(F)F)cc1)NCC(F)(F)F (centres unmarked) [FC1, (Z)—N-(2-Oxo-2-((2,2,2-trifluoroethyl)amino)ethyl)-4-(1,4,4,4-tetrafluoro-3-(3,4,5-trichlorophenyl)but-1-en-1-yl)benzamide] | – | – | mortality at 0.05 µg/cm2 [1]: 0%; mortality at 0.5 µg/cm2 [1]: 100%; mortality at 5 µg/cm2 [1]: 100%; mortality at 0.05 µg/cm2 [2]: 0%; mortality at 0.5 µg/cm2 [2]: 100%; mortality at 5 µg/cm2 [2]: 100% |
| C[C@@H](NC(=O)c1ccc(/C(F)=C/C(c2cc(Cl)c(Cl)c(Cl)c2)C(F)(F)F)cc1)C(=O)NCC(F)(F)F (stereo partly drawn) [FC2, N—((R)-1-Oxo-1-((2,2,2-trifluoroethyl)amino)propan-2-yl)-4-((Z)-1,4,4,4-tetrafluoro-3-(3,4,5-trichlorophenyl)but-1-en-1-yl)benzamide] | – | – | mortality at 0.05 µg/cm2 [1]: 0%; mortality at 0.5 µg/cm2 [1]: 100%; mortality at 5 µg/cm2 [1]: 100%; mortality at 0.05 µg/cm2 [2]: 0%; mortality at 0.5 µg/cm2 [2]: 100%; mortality at 5 µg/cm2 [2]: 100% |
| C[C@@H](NC(=O)c1ccc(/C(F)=C/C(c2ccc(Br)c(Cl)c2)C(F)(F)F)cc1C(F)(F)F)C(=O)N(C)CC(F)(F)F (stereo partly drawn) [PF26, 4-((Z)-3-(4-Bromo-3-chlorophenyl)-1,4,4,4-tetrafluorobut-1-en-1-yl]-N—((R)-1-(methyl(2,2,2-trifluoroethyl)amino)-1-oxopropan-2-yl)-2-(trifluoromethyl)benzamide] | 50 to 100 | 50 to 100 | – |
| CN(CC(F)(F)F)C(=O)C1(NC(=O)c2ccc(/C(F)=C/C(c3ccc(Br)c(Cl)c3)C(F)(F)F)cc2C(F)(F)F)CC1 (centres unmarked) [PF28, (Z)-4-(3-(4-Bromo-3-chlorophenyl)-1,4,4,4-tetrafluorobut-1-en-1-yl]-N-(1-(methyl(2,2,2-trifluoroethyl)carbamoyl)cyclopropyl)-2-(trifluoromethyl)benzamide] | 50 to 100 | 50 to 100 | – |
| CN(CC(F)(F)F)C(=O)CNC(=O)c1ccc(/C(F)=C/C(c2cc(Cl)cc(C(F)(F)F)c2)C(F)(F)F)cc1C(F)(F)F (centres unmarked) [PF41, (Z)-4-(3-(3-Chloro-5-(trifluoromethyl)phenyl)-1,4,4,4-tetrafluorobut-1-en-1-yl)-N-(2-(methyl(2,2,2-trifluoroethyl)amino)-2-oxoethyl)-2-(trifluoromethyl)benzamide] | 50 to 100 | 50 to 100 | – |
| C[C@@H](NC(=O)c1ccc(/C(F)=C/C(c2cc(Cl)cc(C(F)(F)F)c2)C(F)(F)F)cc1C(F)(F)F)C(=O)NCC(F)(F)F (stereo partly drawn) [PF42, 4-((Z)-3-(3-Chloro-5-(trifluoromethyl)phenyl)-1,4,4,4-tetrafluorobut-1-en-1-yl)-N-((1R)-1-oxo-1-((2,2,2-trifluoroethyl)amino)propan-2-yl)-2-(trifluoromethyl)benzamide] | 50 to 100 | 50 to 100 | – |
| C[C@@H](NC(=O)c1ccc(/C(F)=C/C(c2cc(Cl)cc(C(F)(F)F)c2)C(F)(F)F)cc1C(F)(F)F)C(=O)N(C)CC(F)(F)F (stereo partly drawn) [PF43, 4-((Z)-3-(3-Chloro-5-(trifluoromethyl)phenyl)-1,4,4,4-tetrafluorobut-1-en-1-yl)-N—((R)-1-(methyl(2,2,2-trifluoroethyl)amino)-1-oxopropan-2-yl)-2-(trifluoromethyl)benzamide] | 50 to 100 | 50 to 100 | – |
| O=C(NC1(C(=O)NCC(F)(F)F)CC1)c1ccc(/C(F)=C/C(c2cc(Cl)cc(C(F)(F)F)c2)C(F)(F)F)cc1C(F)(F)F (centres unmarked) [PF44] | 50 to 100 | 50 to 100 | – |
| CN(CC(F)(F)F)C(=O)C1(NC(=O)c2ccc(/C(F)=C/C(c3cc(Cl)cc(C(F)(F)F)c3)C(F)(F)F)cc2C(F)(F)F)CC1 (centres unmarked) [PF45, (Z)-4-(3-(3-Chloro-5-(trifluoromethyl)phenyl)-1,4,4,4-tetrafluorobut-1-en-1-yl)-N-(1-(methyl(2,2,2-trifluoroethyl)carbamoyl)cyclopropyl)-2-(trifluoromethyl)benzamide] | 50 to 100 | 50 to 100 | – |
